Among the data in patent US9227955B2, “Compound having angiogenesis inhibitory activity, method for preparing same, and pharmaceutical composition comprising same” (Boryung Pharmaceutical Co., Ltd., priority 2011, dated 2016) are IC50 values, retold here.

Molecules are shown by their SMILES.

The series is described as follows: Cell viability MTS assay (cytotoxicity). It counts as cell-based. Conditions: human; A-431 cells, 48 hrs incubation; read-out: IC50, MTS assay for cytotoxicity against A-431. The method, then:
A-431 ([…], human, ATCC CRL-1555™) cells grown in DMEM (Dulbeco's Modified Eagle's Medium, Gibco #11885) were seeded at a density of 1×10^4 cells/well into 96-well plates and incubated at 37° C. for 18 hrs under the supply of 5% CO2 until the cells stably adhered to the bottom. […] After incubation for 48 hrs in the presence of the test compound, the cells were assayed for viability.
The cells in each well was added with 21 μl of a mixture of 20:1 (v/v) of an MTS solution [(3-(4,5-dimethylthiazol-2-yl)-5-(3-carboxymethoxyphenyl)-2-(4-sulfophenyl)-2H-tetrazolium, Promega, Cat#65421; 2 mg/ml] and a PMS solution [Phenazine methosulfate, Sigma #P9625; 1 mg/ml], and incubated for 2 hrs, followed by measuring absorbance at 490 nm on a microplate reader (Molecular device, spectraMax M2). Relative to the control (media), viability by drug concentration was determined from the measurements of formazan, and the results are given in Table 2, below.
Regarding `O=C(Nc1cccc(Cl)c1)c1cccnc1Nc1ccc(Oc2ccccc2)cc1` [Compound 104, N-(3-Chlorophenyl)-2-(4-phenoxyanilino)nicotinamide], the half-maximal inhibitory concentration (IC50) at 48 h stood at 28.6 µM.
Under `O=C(Nc1ccc(Oc2ccccc2)cc1)c1cccnc1Nc1ccc(Oc2ccccc2)cc1` [Compound 111, 2-(4-Phenoxyanilino)-N-(4-phenoxyphenyl)nicotinamide] stands 135 µM; under `CC1(C)CNc2cc(NC(=O)c3cccnc3NC3CCN(Cc4ccccc4)CC3)ccc21` [Compound 117, 2-(1-Benzylpiperidin-4-ylamino)-N-(3,3-dimethyl-2,3-dihydro-1H-indol-6-yl)nicotinamide], 91.1 µM.
Under `CC1(C)CC(Nc2ncccc2C(=O)Nc2cccc(Cl)c2)CC(C)(C)N1` [Compound 201, N-(3-Chlorophenyl)-2-(2,2,6,6-tetramethylpiperidin-4-ylamino)nicotinamide] stands 54.5 µM.
Under `CC(C)(C)OC(=O)N1CCC(Nc2ncccc2C(=O)Nc2cccc(Cl)c2)CC1` [Compound 208, N-(3-Chlorophenyl)-2-(1-tert-butoxycarbamoylpiperidin-4-ylamino)nicotinamide] stands 86.1 µM.
On to `O=C(Nc1cccc(Cl)c1)c1cccnc1NN1CCN(CCO)CC1` [Compound 241, N-(3-Chlorophenyl)-2-[4-(2-hydroxyethyl)piperazin-1-ylamino)nicotinamide], for which the IC50 at 48 h was found to be 164 µM.
Under `CC1(C)CC(Nc2ncccc2C(=O)Nc2cccc(Cl)c2)CC(C)(C)N1CCO` [Compound 242, N-(3-Chlorophenyl)-2-(1-(2-hydroxyethyl)-2,2,6,6-tetramethylpiperidin-4-ylamino)nicotinamide] stands 81.9 µM; under `C=CCN1CCC(Nc2ncccc2C(=O)Nc2cccc(Cl)c2)CC1` [Compound 243], 170 µM.
Turning to `CCN(CC)CCN1CCC(Nc2ncccc2C(=O)Nc2cccc(Cl)c2)CC1` [Compound 244, N-(3-chlorophenyl)-2-[1-(2-N,N-diethylamino-ethyl)piperidin-4-ylamino]nicotinamide], the half-maximal inhibitory concentration (IC50) at 48 h stood at 94.6 µM.
Under `O=C(Nc1cccc(Cl)c1)c1cccnc1NC1CCN(C(C(=O)O)C(=O)O)CC1` [Compound 246, 2-(4-(3-(3-Chlorophenylcarbamoyl)pyridin-2-ylamino)piperidin-1-yl)maloic acid] stands 101 µM; under `O=C(Nc1cccc(Cl)c1)c1cccnc1NC1CCN(Cc2cccnc2)CC1` [Compound 249, N-(3-chlorophenyl)-2-[1-(pyridin-3-ylmethyl)piperidin-4-ylamino]nicotinamide], 102 µM.
Consider `O=C(Nc1cccc(Cl)c1)c1cccnc1N[C@@H]1CCCN(Cc2ccccc2)C1` [Compound 267, (R)-2-(1-benzylpiperidin-3-ylamino)-N-(3-chlorophenyl)nicotinamide], for which the IC50 at 48 h came out at 20.9 µM.
Under `O=C(Nc1cccc(Cl)c1)c1cccnc1N[C@@H]1CCCNC1` [Compound 269, (R)—N-(3-chlorophenyl)-2-(3-piperidylamino)nicotinamide] stands 88.9 µM.
Under `O=C(Nc1cccc(Cl)c1)c1cccnc1N[C@H]1CCCN(CCO)C1` [Compound 274, (S)—N-(3-chlorophenyl)-2-[1-(2-hydroxyethyl)piperidin-3-ylamino]nicotinamide] stands 111 µM; under `O=C(Nc1cccc(Cl)c1)c1ccc(Cl)nc1NC1CCN(Cc2ccccc2)CC1` [Compound 301, 2-(1-Benzylpiperidin-4-ylamino)-6-chloro-N-(3-chlorophenyl)nicotinamide], 67.6 µM.
As to `O=C(Nc1cccc(Cl)c1)c1cc(F)c(Cl)nc1NC1CCN(Cc2ccccc2)CC1` [Compound 302, 2-(1-benzylpiperidin-4-ylamino)-6-chloro-N-(3-chlorophenyl)-5-fluoronicotinamide], the 50% inhibitory concentration (IC50) at 48 h was 38.1 µM.
Under `O=C(Nc1cccc(Cl)c1)c1ccc(Cl)nc1NC1CCN(CCO)CC1` [Compound 311] stands 62.3 µM.
